Data reported in US4136194A, “2-Phenyl-2-carboxyethyl 1-(p-chlorobenzoyl)-5-methoxy-2-methyl-3-indolylacetate and process for preparation thereof” (SPOFA, United Pharmaceutical Works, priority 1976, dated 1979).
Where two headings read alike, the source gives them in different places.

Columns and labels:
[1] = Acute oral toxicity in mice; conditions: mouse, in vivo, single dose, female mice, 10 days, limits after the slash
Description: (§1) The 2-phenyl-2-carboxyethyl 1-(p-chlorobenzoyl)-5-methoxy-2-methyl-3-indolylacetate prepared in accordance with the invention was evaluated by comparison with 1-(p-chlorobenzoyl-5-methoxy-2-methyl-3-indolylacetic acid), the widely-used anti-inflammatory substance indomethacin. The two compounds were compared upon oral administration of their aqueous suspensions, with the addition of gum arabic, into the stomachs of test animals using a flexible metallic probe.
(§2) Acute toxicity was determined by administering both compounds in a single dose to female mice weighing 16-20 grams (groups of ten) and female rats weighing 130-150 grams (groups of ten). The mortality rate was followed for 10 days after administration of the dosage. The median lethal doses, LD50, are set forth in Table I below and were calculated by the method of J. Berkson, J. Am. Stat. Assoc. 50, 529, (1955).

[2] = Acute oral toxicity in rats; conditions: rat, in vivo, single dose, female rats, 10 days, limits after the slash
Description: as §1, §2

[3] = test system: kaolin oedema; assay: Kaolin oedema inhibition; assay type: in vivo; conditions: 1 mg/kg p.o., one hour before kaolin, male rats, vs untreated control
Description: as §1
(§3) Anti-inflammatory activity was evaluated on kaolin oedema, carrageenin oedema and Freund adjuvant disease as standard model inflammatory syndromes in a group of six male rats.
The kaolin oedema of an extremity (J. Hillebrecht, Arzneim.-Forsch. 9, 625 (1969)) was produced in male rats weighing 130-150 grams by subplanatary injection of a 10% aqueous suspension of kaolin (0.1 ml). The indolylacetate of the invention and indomethacin were administered one hour before the injection of the suspension. The oedema size was measured 30 minutes, 3, 4.5 and 6 hours after the injection. The activity is conveniently expressed in percent of rate of inhibition in comparison with the untreated control group, the results being summarized in Table II below.

[4] = test system: carrageenin oedema; assay: Carrageenin oedema inhibition; assay type: in vivo; conditions: 1.5 mg/kg p.o., male rats, vs untreated control
Description: as §1, §3
The carrageenin oedema (Ch. Winter, Proc. Soc. Exp. Biol. Med. 111, 544 (1962)) was produced in male rats weighing 130-150 grams by subplanatary injection of a 0.5% carrageenin solution (0.1 ml). The dosage schedule and assay procedure as well as the results were identical with those described above for the kaolin oedema inhibition test.

[5] = test system: mice; assay: Analgesic activity, intraperitoneal irritation test with 3% acetic acid; assay type: in vivo, female mice; conditions: Mus musculus, read-out: ED50 (analgesic activity)
Description: as §1
Analgesic activity was evaluated by the intraperitoneal irritation test with 3% acetic acid (L. B. Wilkin et al., J. Pharm. 133, 400 (1961)) in female mice weighing 16-20 grams (groups of 12 animals).

[6] = test system: gastric mucosa; assay type: in vivo; conditions: 8 mg/kg oral, starving female rats
Description: as §1
Gastrotoxicity (adversary effect on gastric mucosa, A. Robert, J. E. Nezamis, Proc. Soc. Exp. Biol. Med. 99, 443 (1958)) was monitored by oral administration of the compounds being compared by testing starving female rats of 250-300 grams body weight (group of six animals). The evaluation was made by estimating the frequency of gastric erosions and ulcers. The relative gastrotoxicity of the two compounds is expressed by the respective standard criteria, ulceration index, as indicated in Table IV below.

Row | Compound | LD50 at 240 h [1] [mg/kg] | LD50 at 240 h [2] [mg/kg] | Kaolin oedema inhibition [3] [%] | Carrageenin oedema inhibition [4] [%] | ED50 ([5]; oral, female mice, 3% acetic acid i.p.) [mg/kg] | ED50 ([5]; po) [mg/kg] | Ulceration Index [6]
1 | COc1ccc2c(c1)c(CC(=O)OCC(C(=O)O)c1ccccc1)c(C)n2C(=O)c1ccc(Cl)cc1 (centres unmarked) [Compound of Invention, 2-phenyl-2-carboxyethyl 1-(p-chlorobenzoyl)-5-methoxy-2-methyl-3-indolylacetate] | 190 | 140 | 16 | 15 | 24.5 |  | 
2 | COc1ccc2c(c1)c(CC(=O)O)c(C)n2C(=O)c1ccc(Cl)cc1 [Indomethacin, 1-(p-chlorobenzoyl)-5-methoxy-2-methyl-3-indolylacetic acid] | 18 | 25 | 19 | 14 |  | 14.5 | 300
